# Test results published in patent EP3636255A1 (priority 2018, dated 2020).
# Where two headings read alike, the source gives them in different places.
# What was measured:
# anthrax toxin = assay type: cell-based, human; conditions: RPE1 cells, 1 µM overnight
# [1] = test system: Vesicular Stomatitis Virus (VSV); assay type: cell-based
# [2] = test system: CerS3 cells lacking the indicated genes; experiment: Yeast growth assay of CerS3 cells lacking genes identified as hypersensitive by SATAY; conditions: 2.5 µM; 48 h at 30°C
# yeast cells = experiment: Yeast growth assay (ten-fold serial dilution spotting) of WT yeast with empty vector or expressing mammalian ceramide synthases; conditions: 48 h at 30°C
Structure (SMILES),toxicity (cell number by DAPI nuclei count) (HeLaMZ cells; 0.2-2 µM),LF activity (anthrax toxin; 500 ng/ml PA83 and 50 ng/ml LF),"PA processing (PA83 to PA63, heptamer formation) (anthrax toxin; 500 ng/ml PA83 and 50 ng/ml LF)",MEK1(N) cleavage (anthrax toxin; control cleaved within 90 to 120 min),"inhibition of viral infection, concentration dependence [1]",viral infection (GFP-positive cells) [1],reduction of viral infectivity ([1]; 1 µM),sensitivity of the mutants (colony size and density) [2],cellular toxicity (RPE1 cells),"sensitivity (colony size and density) (yeast cells; WT+CerS1, 5 to 20 µM)","sensitivity (colony size and density) (yeast cells; WT+CerS2, 5 to 20 µM)","sensitivity (colony size and density) (yeast cells; WT+CerS3, already at 5 µM)","sensitivity (colony size and density) (yeast cells; WT+CerS4, 5 to 20 µM)","sensitivity (colony size and density) (yeast cells; WT+CerS5, 10 µM)","sensitivity (colony size and density) (yeast cells; WT+CerS5, 20 µM)","sensitivity (colony size and density) (yeast cells; WT+CerS6, 10 µM)","sensitivity (colony size and density) (yeast cells; WT+CerS6, 20 µM)","sensitivity (colony size and density) (yeast cells; WT+EV (empty vector), 5 to 20 µM)",toxicity (cell count by DAPI-based nuclei count) (HeLaMZ cells),toxicity (cell number by DAPI nuclei count) (HeLaMZ cells; at 1µM)
"C#CCCCCCCCCCCCCCC(O)C(C)N (centres unmarked) [Formula 2, 2-aminooctadec-17-yn-3-ol]",very little toxicity,,,,,,,,,,,,,,,,,,,
"CCCCCCCCCCCCCCCC(O)C(C)N (centres unmarked) [Formula 1, 2-aminooctadecan-3-ol]",,prevented,unaffected,stabilized,Concentration dependent inhibition,reduced viral infection,substantial,slightly more sensitive,not toxic,insensitive,insensitive,highly sensitive,insensitive,mildly sensitive,highly sensitive,mildly sensitive,highly sensitive,insensitive,not toxic,starts to show some toxicity
